Assay results taken from the CheMixHub viscosity set.

Experiment: xn = mol fraction of the nth substance listed

C=C(C)C(=O)OC + CC#N
viscosity [mPa·s], 101 kPa
Details | 298.15 K | 303.15 K | 308.15 K | 313.15 K | 318.15 K
x2 = 0.0688 | 0.5536 | 0.5171 | 0.4878 | 0.4643 | 0.4465
x2 = 0.1376 | 0.5439 | 0.5091 | 0.4811 | 0.4585 | 0.4413
x2 = 0.1957 | 0.5346 | 0.5013 | 0.4745 | 0.4526 | 0.4359
x2 = 0.2716 | 0.5214 | 0.4899 | 0.4643 | 0.4435 | 0.4275
x2 = 0.3344 | 0.5094 | 0.4795 | 0.455 | 0.435 | 0.4194
x2 = 0.4135 | 0.4932 | 0.4651 | 0.442 | 0.423 | 0.4079
x2 = 0.4916 | 0.4761 | 0.4498 | 0.4281 | 0.41 | 0.3954
x2 = 0.5649 | 0.4592 | 0.4344 | 0.4138 | 0.3967 | 0.3825
x2 = 0.6386 | 0.4413 | 0.4183 | 0.3988 | 0.3825 | 0.3687
x2 = 0.7084 | 0.4238 | 0.4023 | 0.3839 | 0.3683 | 0.3549
x2 = 0.7927 | 0.402 | 0.3823 | 0.3652 | 0.3505 | 0.3375
x2 = 0.855 | 0.3855 | 0.3672 | 0.351 | 0.3367 | 0.324
x2 = 0.9073 | 0.3714 | 0.3541 | 0.3387 | 0.3249 | 0.3123
x2 = 0.9497 | 0.3599 | 0.3435 | 0.3286 | 0.3152 | 0.3028

COc1ccccc1C + CCCCCOC(C)=O
Details | viscosity [mPa·s]
298.15 K, 101 kPa, x1 = 0.5 | 0.8659

C=C(C)C(=O)OC + CCCCCCCO
viscosity [mPa·s], 101.3 kPa
Details | 298.15 K | 308.15 K
x1 = 0.0526 | 4.782 | 3.544
x1 = 0.1258 | 3.728 | 2.828
x1 = 0.2484 | 2.538 | 1.991
x1 = 0.3455 | 1.926 | 1.546
x1 = 0.4471 | 1.483 | 1.213
x1 = 0.5009 | 1.307 | 1.078
x1 = 0.5615 | 1.143 | 0.95
x1 = 0.6456 | 0.965 | 0.81
x1 = 0.7444 | 0.811 | 0.685
x1 = 0.8476 | 0.695 | 0.588
x1 = 0.9438 | 0.618 | 0.522
